How the values were obtained:
Type in all cases: cell-based
Moraxella catarrhalis = assay: MIC against Gram-negative bacteria: Moraxella catarrhalis; settings: 5×10^5 CFU/mL; for MIC M. catarrhalis: two-fold serial dilution
How it was run: (§1)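 Inocula prepared by growing LB cultures at 37° C to 0.5 McFarland, centrifuging at 4000×g, and resuspending in fresh medium. Final density 5×10^5 CFU/mL per well with two-fold dilutions of purified EGF domain protein; shaking incubation at 37° C.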

Aeromonas hydrophila = assay: MIC against Gram-negative bacteria: Aeromonas hydrophila; settings: 5×10^5 CFU/mL; for MIC A. hydrophila: two-fold serial dilution
How it was run: as §1

Pseudomonas aeruginosa = assay: MIC against Gram-negative bacteria: Pseudomonas aeruginosa; settings: 5×10^5 CFU/mL; for MIC P. aeruginosa: two-fold serial dilution
How it was run: as §1

Enterobacter cloacae = assay: MIC against Gram-negative bacteria: Enterobacter cloacae; settings: 5×10^5 CFU/mL; for MIC E. cloacae: two-fold serial dilution
How it was run: as §1

Citrobacter diversus = assay: MIC against Gram-negative bacteria: Citrobacter diversus; settings: 5×10^5 CFU/mL; for MIC C. diversus: two-fold serial dilution
How it was run: as §1

Klebsiella pneumonia = assay: MIC against Gram-negative bacteria: Klebsiella pneumonia; settings: 5×10^5 CFU/mL; for MIC K. pneumonia: two-fold serial dilution
How it was run: as §1

Proteus vulgaris = assay: MIC against Gram-negative bacteria: Proteus vulgaris; settings: 5×10^5 CFU/mL; for MIC P. vulgaris: two-fold serial dilution
How it was run: as §1

Proteus mirabilis = assay: MIC against Gram-negative bacteria: Proteus mirabilis; settings: 5×10^5 CFU/mL; for MIC P. mirabilis: two-fold serial dilution
How it was run: as §1

E. coli BL21 = assay: MIC against Gram-negative bacteria: E. coli BL21; settings: 5×10^5 CFU/mL; for MIC E. coli BL21: two-fold serial dilution
How it was run: as §1

E. coli DH5α = assay: Antibacterial activity: MIC and growth curve against E. coli DH5α in 96-well plate; settings: minimal inhibitory concentration against E. coli DH5α; 96-well plate, 5×10^5 CFU/mL, 37° C., judged after 8 h
How it was run: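 MIC taken as lowest protein level with no bacterial growth, tracked by A600 every 30 min during 37 °C, 175 rpm culture. Two-fold protein series 50-12.5 μg/mL final, triplicate wells, against 5×10^5 CFU/mL of LB-washed mid-log cells.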

Serratia marcescens = assay: MIC against Gram-negative bacteria: Serratia marcescens; settings: 5×10^5 CFU/mL; for MIC S. marcescens: two-fold serial dilution
How it was run: as §1

[1] = E. coli BL21, 10 h cultivation at 37° C.

| Substance | MIC (E. coli DH5α) | MIC against M. catarrhalis (Moraxella catarrhalis; 96-well plate, 37° C., 10 h) | MIC against A. hydrophila (Aeromonas hydrophila; 96-well plate, 37° C., 10 h) | MIC against P. aeruginosa (Pseudomonas aeruginosa; 96-well plate, 37° C., 10 h) | MIC against E. cloacae (Enterobacter cloacae; 96-well plate, 37° C., 10 h) | MIC against C. diversus (Citrobacter diversus; 96-well plate, 37° C., 10 h) | MIC against K. pneumonia (Klebsiella pneumonia; 96-well plate, 37° C., 10 h) | MIC against P. vulgaris (Proteus vulgaris; 96-well plate, 37° C., 10 h) | MIC against P. mirabilis (Proteus mirabilis; 96-well plate, 37° C., 10 h) | MIC against E. coli BL21 (E. coli BL21; 96-well plate, 37° C., 10 h) | MIC against S. marcescens (Serratia marcescens; 96-well plate, 37° C., 10 h) | MIC M. catarrhalis (Moraxella catarrhalis; 10 h cultivation at 37° C.) | MIC A. hydrophila (Aeromonas hydrophila; 10 h cultivation at 37° C.) | MIC P. aeruginosa (Pseudomonas aeruginosa; 10 h cultivation at 37° C.) | MIC E. cloacae (Enterobacter cloacae; 10 h cultivation at 37° C.) | MIC C. diversus (Citrobacter diversus; 10 h cultivation at 37° C.) | MIC K. pneumonia (Klebsiella pneumonia; 10 h cultivation at 37° C.) | MIC P. vulgaris (Proteus vulgaris; 10 h cultivation at 37° C.) | MIC P. mirabilis (Proteus mirabilis; 10 h cultivation at 37° C.) | MIC E. coli BL21 (E. coli BL21; 10 h cultivation at 37° C.) | other results |
| --- | --- | --- | --- | --- | --- | --- | --- | --- | --- | --- | --- | --- | --- | --- | --- | --- | --- | --- | --- | --- | --- |
| PRT251 (FSHLCLEDHNSYCINGACAFHHELEKAICRCFTGYTGERCE; listed as Homo sapiens) | 25 µg/mL | – | – | – | – | – | – | – | – | – | – | – | – | – | – | – | – | – | – | – | MIC (μg/mL) M. catarrhalis (Moraxella catarrhalis; M. catarrhalis, 10 h cultivation at 37° C.): 12.5 µg/mL; MIC (μg/mL) A. hydrophila (Aeromonas hydrophila; A. hydrophila, 10 h cultivation at 37° C.): 12.5 µg/mL; MIC (μg/mL) P. aeruginosa (Pseudomonas aeruginosa; P. aeruginosa, 10 h cultivation at 37° C.): 25 µg/mL; MIC (μg/mL) E. cloacae (Enterobacter cloacae; E. cloacae, 10 h cultivation at 37° C.): 25 µg/mL; MIC (μg/mL) C. diversus (Citrobacter diversus; C. diversus, 10 h cultivation at 37° C.): 25 µg/mL; MIC (μg/mL) K. pneumonia (Klebsiella pneumonia; K. pneumonia, 10 h cultivation at 37° C.): 12.5 µg/mL; MIC (μg/mL) P. vulgaris (Proteus vulgaris; P. vulgaris, 10 h cultivation at 37° C.): 12.5 µg/mL; MIC (μg/mL) P. mirabilis (Proteus mirabilis; P. mirabilis, 10 h cultivation at 37° C.): 12.5 µg/mL; MIC (μg/mL) E. coli BL21 (E. coli BL21; [1]): 12.5 µg/mL; MIC (μg/mL) S. marcescens (Serratia marcescens; S. marcescens, 10 h cultivation at 37° C.): 12.5 µg/mL |
| PRT484 (RCEDLDGVVCGGHGTCSCGRCVCERGWFGKLCQ; listed as Homo sapiens) | 25 µg/mL | 50 µg/mL | 50 µg/mL | 25 µg/mL | 12.5 µg/mL | 12.5 µg/mL | 50 µg/mL | 50 µg/mL | 12.5 µg/mL | 12.5 µg/mL | 12.5 µg/mL | – | – | – | – | – | – | – | – | – | – |
| PRT1143 (NLDECLSEPCLHDGVCIDGINHYTCDCKSGFFGTHCE; listed as Homo sapiens) | 12.5 µg/mL | – | – | – | – | – | – | – | – | – | – | 50 µg/mL | 50 µg/mL | 50 µg/mL | 12.5 µg/mL | 12.5 µg/mL | 25 µg/mL | 50 µg/mL | 12.5 µg/mL | 25 µg/mL | MIC S. marcescens (Serratia marcescens; 10 h cultivation at 37° C.): 12.5 µg/mL |
| PRT1102 (TIGSCGKNSCQHGGICHQDPIYPVCICPAGYAGRFCE; listed as Homo sapiens) | 12.5 µg/mL | – | – | – | – | – | – | – | – | – | – | 12.5 µg/mL | 12.5 µg/mL | 12.5 µg/mL | 12.5 µg/mL | 12.5 µg/mL | 12.5 µg/mL | 12.5 µg/mL | 12.5 µg/mL | 12.5 µg/mL | MIC S. marcescens (Serratia marcescens; 10 h cultivation at 37° C.): 25 µg/mL |
| PRT1454 (DVNECFYEELNACSGRELCANLEGSYWCVCHQEAPATSPRKLNLEWEDCP; listed as Homo sapiens) | 25 µg/mL | – | – | – | – | – | – | – | – | – | – | – | – | – | – | – | – | – | – | – | MIC against M. catarrhalis (Moraxella catarrhalis; Moraxella catarrhalis, 10 h cultivation at 37° C.): 50 µg/mL; MIC against A. hydrophila (Aeromonas hydrophila; Aeromonas hydrophila, 10 h cultivation at 37° C.): 25 µg/mL; MIC against P. aeruginosa (Pseudomonas aeruginosa; Pseudomonas aeruginosa, 10 h cultivation at 37° C.): 12.5 µg/mL; MIC against E. cloacae (Enterobacter cloacae; Enterobacter cloacae, 10 h cultivation at 37° C.): 50 µg/mL; MIC against C. diversus (Citrobacter diversus; Citrobacter diversus, 10 h cultivation at 37° C.): 12.5 µg/mL; MIC against K. pneumonia (Klebsiella pneumonia; Klebsiella pneumonia, 10 h cultivation at 37° C.): 25 µg/mL; MIC against P. vulgaris (Proteus vulgaris; Proteus vulgaris, 10 h cultivation at 37° C.): 25 µg/mL; MIC against P. mirabilis (Proteus mirabilis; Proteus mirabilis, 10 h cultivation at 37° C.): 12.5 µg/mL; MIC against E. coli BL21 (E. coli BL21; [1]): 12.5 µg/mL; MIC against S. marcescens (Serratia marcescens; Serratia marcescens, 10 h cultivation at 37° C.): 50 µg/mL |
| PRT508 (CECSHLGNNCDPKTGRCICPPNTIGEKCSKCAPNTWGHSITTGCKA; listed as Homo sapiens) | 12.5 µg/mL | 50 µg/mL | 50 µg/mL | 50 µg/mL | 12.5 µg/mL | 100 µg/mL | 25 µg/mL | 12.5 µg/mL | 12.5 µg/mL | 25 µg/mL | 25 µg/mL | – | – | – | – | – | – | – | – | – | – |

— patent publication US9833497B2, “Human originated EGF domain proteins and use of the same” (CHENGDU SOURCEBIO LIMITED-LIABILITY COMPANY, priority 2013, dated 2017)
